Drawing on patent US9453026B2, “ACC inhibitors and uses thereof” (Gilead Apollo, Inc., priority 2011, dated 2016), this text covers IC50 for 28 compounds.

Sequence of ACC2 (O00763 whole entry, species assumed): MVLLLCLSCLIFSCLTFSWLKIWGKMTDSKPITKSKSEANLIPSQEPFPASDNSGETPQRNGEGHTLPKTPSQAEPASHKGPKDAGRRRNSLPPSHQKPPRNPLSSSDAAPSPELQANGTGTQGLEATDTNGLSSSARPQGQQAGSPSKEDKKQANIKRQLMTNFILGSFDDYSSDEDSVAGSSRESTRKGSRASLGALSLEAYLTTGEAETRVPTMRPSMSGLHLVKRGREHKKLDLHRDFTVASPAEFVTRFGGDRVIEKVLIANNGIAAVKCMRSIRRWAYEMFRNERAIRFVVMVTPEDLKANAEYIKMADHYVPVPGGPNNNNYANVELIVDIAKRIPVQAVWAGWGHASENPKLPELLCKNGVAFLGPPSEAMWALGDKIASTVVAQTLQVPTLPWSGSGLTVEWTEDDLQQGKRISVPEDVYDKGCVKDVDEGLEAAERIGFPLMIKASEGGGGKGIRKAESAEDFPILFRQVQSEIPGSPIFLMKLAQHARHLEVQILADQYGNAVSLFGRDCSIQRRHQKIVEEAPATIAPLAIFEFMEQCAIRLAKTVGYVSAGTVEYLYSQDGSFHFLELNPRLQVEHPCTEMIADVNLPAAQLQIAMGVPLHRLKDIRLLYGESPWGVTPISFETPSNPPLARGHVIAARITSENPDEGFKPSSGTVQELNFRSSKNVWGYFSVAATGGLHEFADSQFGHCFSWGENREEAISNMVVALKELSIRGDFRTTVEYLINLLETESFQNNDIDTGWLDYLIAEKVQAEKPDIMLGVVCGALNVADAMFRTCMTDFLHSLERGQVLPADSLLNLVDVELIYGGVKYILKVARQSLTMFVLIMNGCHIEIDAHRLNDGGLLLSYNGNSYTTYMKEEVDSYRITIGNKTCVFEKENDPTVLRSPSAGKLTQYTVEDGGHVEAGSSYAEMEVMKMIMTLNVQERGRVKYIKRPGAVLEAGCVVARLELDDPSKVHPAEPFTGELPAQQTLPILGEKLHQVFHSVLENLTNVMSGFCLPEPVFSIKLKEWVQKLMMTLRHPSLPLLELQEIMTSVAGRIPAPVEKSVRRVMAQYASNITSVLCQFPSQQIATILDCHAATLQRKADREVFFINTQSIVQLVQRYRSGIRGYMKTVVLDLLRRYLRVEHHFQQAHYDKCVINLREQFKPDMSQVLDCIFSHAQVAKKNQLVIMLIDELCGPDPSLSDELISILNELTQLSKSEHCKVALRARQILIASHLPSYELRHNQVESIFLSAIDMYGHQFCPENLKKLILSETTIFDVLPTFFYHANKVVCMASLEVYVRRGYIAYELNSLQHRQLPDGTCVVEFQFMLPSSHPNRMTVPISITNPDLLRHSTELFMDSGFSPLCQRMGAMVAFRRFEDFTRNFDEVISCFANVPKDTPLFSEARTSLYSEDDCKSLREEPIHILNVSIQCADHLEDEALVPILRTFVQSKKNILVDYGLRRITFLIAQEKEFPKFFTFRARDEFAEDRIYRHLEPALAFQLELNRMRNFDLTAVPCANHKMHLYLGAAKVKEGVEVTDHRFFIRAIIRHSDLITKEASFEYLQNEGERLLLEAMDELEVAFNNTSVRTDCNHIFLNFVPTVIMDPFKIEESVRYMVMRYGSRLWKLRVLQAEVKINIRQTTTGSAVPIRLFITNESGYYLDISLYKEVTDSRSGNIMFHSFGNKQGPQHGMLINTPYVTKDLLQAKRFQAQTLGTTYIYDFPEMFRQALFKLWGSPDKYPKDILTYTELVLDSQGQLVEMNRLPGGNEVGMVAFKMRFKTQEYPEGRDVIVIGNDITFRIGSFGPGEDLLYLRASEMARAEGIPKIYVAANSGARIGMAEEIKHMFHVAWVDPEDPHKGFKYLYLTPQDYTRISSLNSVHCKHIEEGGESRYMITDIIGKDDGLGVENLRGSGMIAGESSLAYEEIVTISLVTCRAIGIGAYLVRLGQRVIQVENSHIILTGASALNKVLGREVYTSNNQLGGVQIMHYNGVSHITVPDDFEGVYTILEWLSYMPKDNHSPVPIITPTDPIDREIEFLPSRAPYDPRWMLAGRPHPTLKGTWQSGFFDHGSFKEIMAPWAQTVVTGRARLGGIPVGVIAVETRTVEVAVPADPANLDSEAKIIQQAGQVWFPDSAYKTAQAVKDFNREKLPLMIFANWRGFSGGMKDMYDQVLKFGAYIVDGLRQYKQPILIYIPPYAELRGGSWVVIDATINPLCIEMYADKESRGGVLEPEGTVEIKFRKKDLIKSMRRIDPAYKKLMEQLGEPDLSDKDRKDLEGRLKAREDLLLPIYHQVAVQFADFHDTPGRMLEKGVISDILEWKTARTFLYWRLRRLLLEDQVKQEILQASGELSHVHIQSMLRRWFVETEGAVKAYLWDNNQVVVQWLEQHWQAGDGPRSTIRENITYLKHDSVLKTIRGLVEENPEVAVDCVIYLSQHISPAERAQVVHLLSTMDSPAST

This assay has as its target ACC2 (Homo sapiens, UniProt O00763). Put plainly: In vitro ACC2 inhibition assay (ADP-Glo). The format is biochemical. As to conditions: read-out: ACC2. Here is the method: An exemplary procedure for the in vitro ACC inhibition assay, which can be used to determine the inhibitory action of compounds of the invention toward either ACC1 or ACC2, follows. The ADP-Glo™ Kinase Assay kit from Promega was used. The ADP-Glo™ Kinase Assay is a luminescent ADP detection assay to measure enzymatic activity by quantifying the amount of ADP produced during an enzyme reaction. The assay is performed in two steps; first, after the enzyme reaction, an equal volume of ADP-Glo™ Reagent is added to terminate the reaction and deplete the remaining ATP. Second, the Kinase Detection Reagent is added to simultaneously convert ADP to ATP and allow the newly synthesized ATP to be measured using a luciferase/luciferin reaction. Luminescence can be correlated to ADP concentrations by using an ATP-to-ADP conversion curve. The detailed procedure is as follows. 50 μL of the compound being tested (600 uM in DMSO) was added to a 384-well dilution plate. The compound was diluted 1:3 in succession in DMSO for each row for 11 wells. 0.5 μL ACC2 working solution was added to 384-well white Optiplate assay plate. 0.5 μL diluted compound solution in each column from step 2 to assay plate, each row containing 2 replicates. […] The plates were incubated at room temperature for 15 minutes. 5 μL substrate working solution was added to each well to initiate reaction. […] Plates were incubated at room temperature for 60 minutes. 10 μL ADP glo reagent was added. Plates were incubated at room temperature for 40 minutes. 20 μL kinase detection reagent was added.
Data for each concentration, as well as the positive and negative controls were averaged, and the standard deviation calculated. Percent inhibition was calculated by the formula: 100× (average negative control−compound)/(average negative control−average positive control). The IC50 for each compound was calculated by fitting the data with a non-linear regression equation: Y=Bottom+(Top-Bottom)/(1+10^((Log IC50−X)*HillSlope)), where X is the log of compound concentration and Y is percent inhibition.
The compound numbers correspond to the compound numbers in Table 1.
(In ADP-Glo the light output rises with the ADP produced.)
As to `Cc1c(-c2ncco2)sc2c1c(=O)n(C(C)(C)C(=O)O)c(=O)n2CCOC(C)C` [I-234, 2-methyl-2-[5-methyl-6-(1,3-oxazol-2-yl)-2,4-dioxo-1-[2-(propan-2-yloxy)ethyl]-1H,2H,3H,4H-thieno[2,3-d]pyrimidin-3-yl]propanoic acid], the IC50 was less than 5 µM.
For `CCCOC(=O)c1sc2c(c1C)c(=O)n(CC(=O)O)c(=O)n2CCc1ccccc1` [I-68, 2-[5-methyl-2,4-dioxo-1-(2-phenylethyl)-6-(propoxycarbonyl)-1H,2H,3H,4H-thieno[2,3-d]pyrimidin-3-yl]acetic acid] the value was 5 to 20 µM; for `COc1ccccc1[C@H](Cn1c(=O)n(C(C)(C)C(=O)NS(C)(=O)=O)c(=O)c2c(C)c(-c3ncco3)sc21)OC(C)C` [I-240, N-methanesulfonyl-2-[1-[(2R)-2-(2-methoxyphenyl)-2-(propan-2-yloxy)ethyl]-5-methyl-6-(1,3-oxazol-2-yl)-2,4-dioxo-1H,2H,3H,4H-thieno[2,3-d]pyrimidin-3-yl]-2-methylpropanamide], less than 0.1 µM.
As for `CCOC(=O)c1sc2c(c1C)c(=O)n(CC(=O)O)c(=O)n2C[C@H](O)c1ccccc1` [I-78, 2-[6-(ethoxycarbonyl)-1-[(2R)-2-hydroxy-2-phenylethyl]-5-methyl-2,4-dioxo-1H,2H,3H,4H-thieno[2,3-d]pyrimidin-3-yl]acetic acid], the figure is less than 5 µM; as for `CCOC(=O)c1sc2c(c1C)c(=O)n(C(C)(C)C(=O)O)c(=O)n2C[C@@H](OCC(C)C)c1ccccc1` [I-124, 2-[6-(ethoxycarbonyl)-5-methyl-1-[(2S)-2-(2-methylpropoxy)-2-phenylethyl]-2,4-dioxo-1H,2H,3H,4H-thieno[2,3-d]pyrimidin-3-yl]-2-methylpropanoic acid], 5 to 20 µM.
`CCOC(=O)c1sc2c(c1C)c(=O)n(CCO)c(=O)n2C(C)Cc1ccccc1` (stereo not shown) [I-36, ethyl 3-(2-hydroxyethyl)-5-methyl-2,4-dioxo-1-(1-phenylpropan-2-yl)-1H,2H,3H,4H-thieno[2,3-d]pyrimidine-6-carboxylate]: the IC50 fell in the range of 20 to 50 µM.
`CCOC(=O)c1sc2c(c1C)c(=O)n(CC(=O)O)c(=O)n2Cc1ccc2ccn(C)c2c1` [I-74, 2-[6-(ethoxycarbonyl)-5-methyl-1-[(1-methyl-1H-indol-6-yl)methyl]-2,4-dioxo-1H,2H,3H,4H-thieno[2,3-d]pyrimidin-3-yl]acetic acid]: the IC50 was in the range of 5 to 20 µM.
As for `O=c1c2ccsc2n(CCc2ccccc2)c(=O)n1CCO` [I-59], the figure is more than 50 µM.
Turning to `Cc1c(C(=O)OCCO)sc2c1c(=O)n(CC(=O)O)c(=O)n2CCc1ccccc1` [I-83, 2-[6-[(2-hydroxyethoxy)carbonyl]-5-methyl-2,4-dioxo-1-(2-phenylethyl)-1H,2H,3H,4H-thieno[2,3-d]pyrimidin-3-yl]acetic acid], the IC50 was less than 5 µM.
For `CCOC(=O)c1sc2c(c1C)c(=O)n(CC(=O)O)c(=O)n2CC(OC(=O)COC)c1ccccc1` (stereo not shown) [I-101, 2-[6-(ethoxycarbonyl)-1-[2-[(2-methoxyacetyl)oxy]-2-phenylethyl]-5-methyl-2,4-dioxo-1H,2H,3H,4H-thieno[2,3-d]pyrimidin-3-yl]acetic acid] the value was 5 to 20 µM; for `CCOC(=O)c1sc2c(c1C)c(=O)n(CC(=O)O)c(=O)n2CC(OC)c1ccccc1` (stereo not shown) [I-67, 2-[6-(ethoxycarbonyl)-1-(2-methoxy-2-phenylethyl)-5-methyl-2,4-dioxo-1H,2H,3H,4H-thieno[2,3-d]pyrimidin-3-yl]acetic acid], less than 5 µM; for `CCOC(=O)c1sc2c(c1C)c(=O)n(C(C)(C)C(=O)O)c(=O)n2C[C@H](OC(C)(C)C)c1ccccc1` [I-127, 2-[1-[(2R)-2-(tert-butoxy)-2-phenylethyl]-6-(ethoxycarbonyl)-5-methyl-2,4-dioxo-1H,2H,3H,4H-thieno[2,3-d]pyrimidin-3-yl]-2-methylpropanoic acid], 20 to 50 µM.
For `O=C(O)Cn1c(=O)c2c3c(sc2n(CCc2ccccc2)c1=O)CCC3` [I-4] the value was 20 to 50 µM; for `CCOC(=O)c1sc2c(c1C)c(=O)n(CCO)c(=O)n2CC` [I-11, ethyl 1-ethyl-3-(2-hydroxyethyl)-5-methyl-2,4-dioxo-1H,2H,3H,4H-thieno[2,3-d]pyrimidine-6-carboxylate], more than 50 µM.
As for `Cc1c(C(=O)OCCO)sc2c1c(=O)n(CCO)c(=O)n2CCc1ccccc1` [I-42, 2-hydroxyethyl 3-(2-hydroxyethyl)-5-methyl-2,4-dioxo-1-(2-phenylethyl)-1H,2H,3H,4H-thieno[2,3-d]pyrimidine-6-carboxylate], the IC50 fell in the range of 20 to 50 µM.
As to `CCCOC(=O)c1sc2c(c1C)c(=O)n(CCO)c(=O)n2CCc1ccccc1` [I-41, propyl 3-(2-hydroxyethyl)-5-methyl-2,4-dioxo-1-(2-phenylethyl)-1H,2H,3H,4H-thieno[2,3-d]pyrimidine-6-carboxylate], the IC50 was more than 50 µM.
For `CCOC(=O)c1sc2c(c1C)c(=O)n(CC(=O)O)c(=O)n2CC(OC)c1ccccc1` (stereo in doubt) [I-105, 2-[6-(ethoxycarbonyl)-1-[(2S)-2-methoxy-2-phenylethyl]-5-methyl-2,4-dioxo-1H,2H,3H,4H-thieno[2,3-d]pyrimidin-3-yl]acetic acid] the value was less than 1 µM; for `CCOC(=O)c1sc2c(c1C)c(=O)n(CCOC)c(=O)n2CCc1ccccc1` [I-6, ethyl 3-(2-methoxyethyl)-5-methyl-2,4-dioxo-1-(2-phenylethyl)-1H,2H,3H,4H-thieno[2,3-d]pyrimidine-6-carboxylate], 20 to 50 µM.
As for `CCOC(=O)c1sc2c(c1C)c(=O)n(CCO)c(=O)n2Cc1ccc2[nH]ccc2c1` [I-51, ethyl 3-(2-hydroxyethyl)-1-(1H-indol-5-ylmethyl)-5-methyl-2,4-dioxo-1H,2H,3H,4H-thieno[2,3-d]pyrimidine-6-carboxylate], the IC50 was more than 50 µM.
Regarding `CCOC(=O)c1sc2c(c1C)c(=O)n(CC(=O)O)c(=O)n2Cc1cc2ccccc2[nH]1` [I-88, 2-[6-(ethoxycarbonyl)-1-(1H-indol-2-ylmethyl)-5-methyl-2,4-dioxo-1H,2H,3H,4H-thieno[2,3-d]pyrimidin-3-yl]acetic acid], the IC50 is more than 50 µM.
For `Cc1c(-c2ncco2)sc2c1c(=O)n(CC#N)c(=O)n2C[C@H](OC(C)C)c1ccccc1` [I-142, 2-(1-((R)-2-Isopropoxy-2-phenylethyl)-5-methyl-6-(oxazol-2-yl)-2,4-dioxo-1,2-dihydrothieno[2,3-d]pyrimidin-3(4H)-yl)acetonitrile] the value was less than 1 µM.
In the case of `Cc1c(-c2ncco2)sc2c1c(=O)n(C(C)(C)C(=O)O)c(=O)n2C[C@H](OC1CCOCC1)c1ccccc1CO` [I-296, 2-[1-[(2R)-2-[2-(hydroxymethyl)phenyl]-2-(oxan-4-yloxy)ethyl]-5-methyl-6-(1,3-oxazol-2-yl)-2,4-dioxo-1H,2H,3H,4H-thieno[2,3-d]pyrimidin-3-yl]-2-methylpropanoic acid], the IC50 was less than 0.1 µM.
For `CCOC(=O)c1sc2c(c1C)c(=O)n(CC(=O)O)c(=O)n2CC(=O)c1ccccc1` [I-73, 2-[6-(ethoxycarbonyl)-5-methyl-2,4-dioxo-1-(2-oxo-2-phenylethyl)-1H,2H,3H,4H-thieno[2,3-d]pyrimidin-3-yl]acetic acid] the value was 20 to 50 µM; for `Cc1c(-c2ncco2)sc2c1c(=O)n(C(C)(C)C(=O)O)c(=O)n2C[C@H](OC(=O)N1CCOCC1)c1ccccc1` [I-231, 2-methyl-2-[5-methyl-1-[(2R)-2-[(morpholin-4-yl)carbonyloxy]-2-phenylethyl]-6-(1,3-oxazol-2-yl)-2,4-dioxo-1H,2H,3H,4H-thieno[2,3-d]pyrimidin-3-yl]propanoic acid], less than 5 µM.
For `Cc1c(-c2ncco2)sc2c1c(=O)n(C(C)(C)C(=O)O)c(=O)n2C[C@H](O[C@H]1CCC[C@@H](O)C1)c1ccccc1` [I-173, 2-(1-((R)-2-(((1S,3R)-3-hydroxycyclohexyl)oxy)-2-phenylethyl)-5-methyl-6-(oxazol-2-yl)-2,4-dioxo-1,2-dihydrothieno[2,3-d]pyrimidin-3(4H)-yl)-2-methylpropanoic acid] the value was less than 1 µM; for `Cc1c(-c2ncc(Cl)o2)sc2c1c(=O)n(C(C)(C)C(=O)O)c(=O)n2C[C@H](OC(C)C)c1ccccc1` [I-156, 2-[6-(5-chloro-1,3-oxazol-2-yl)-5-methyl-2,4-dioxo-1-[(2R)-2-phenyl-2-(propan-2-yloxy)ethyl]-1H,2H,3H,4H-thieno[2,3-d]pyrimidin-3-yl]-2-methylpropanoic acid], less than 5 µM; for `CCOC(=O)c1sc2c(c1C)c(=O)n(CCO)c(=O)n2CCc1ccc2ccccc2c1` [I-30, ethyl 3-(2-hydroxyethyl)-5-methyl-1-[2-(naphthalen-2-yl)ethyl]-2,4-dioxo-1H,2H,3H,4H-thieno[2,3-d]pyrimidine-6-carboxylate], more than 50 µM.
As for `CCOC(=O)c1sc2c(c1C)c(=O)n(CCO)c(=O)n2Cc1csc(C)n1` [I-35], the figure is more than 50 µM.
